“Also recorded” adds a separate entry of the source.
Columns and labels:
[1] = tested on: normal human B cells; experiment: Western blot of survival and signaling markers in normal human B cells; format: cell-based; details: 10 μg/ml, 24 hr, 2 μg/ml rhsCD40L, vs hIgG1
Text: Cells were lysed and whole cell lysates resolved by SDS-PAGE and Western blotting using antibodies specific to human cPARP, Mcl-1, Bcl-xl, p-Akt, and p-p38 MAPK. All membranes were stripped and re-probed for either β-actin or AKT or p38 MAPK total protein, as appropriate.

[2] = tested on: B cells from normal human subjects; experiment: In vitro CD40 ligand-mediated proliferation of normal B cells; format: cell-based
Text: (§1) 2, 2000, and PCT International Application No. PCT/US01/30857, also titled “Human Anti-CD40 Antibodies,” filed Oct. 2, 2001, both of which are herein incorporated by reference in their entirety.
(§2) 4, 2003, Nov. 26, 2003, and Apr. 27, 2004, and assigned U.S. Patent Application Nos. 60/517,337, 60/525,579, and 60/565,710, respectively, and International Patent Application No. PCT/US2004/037152, also entitled “Antagonist, Anti-CD40 Monoclonal Antibodies and Methods for Their Use,” filed Nov. 4, 2004; the contents of each of which are herein incorporated by reference in their entirety.

[3] = target: cell-surface CD40 (Homo sapiens, UniProt P25942); experiment: Flow cytometric CD40-ligand binding blockade and displacement; details: flow cytometric assays / FACS
Text: as §1, §2

[4] = tested on: CLL patient samples; experiment: p-p38 status in multiple B-CLL patient samples; format: cell-based, human; details: CLL patients with high or low basal p-p38; CD40L stimulation
Text: Patients with low basal p-p38 activity have a higher induction of phosphorylation by CD40L stimulation than patients with a higher basal expression.

[5] = tested on: B-CLL cells from patients; experiment: Flow cytometry of cleaved PARP and TUNEL in B-CLL cells; format: cell-based, human; details: 10 μg/ml with 1 μg/ml sCD40L, 24 hours
Method: In this experiment, 0.4×10^6B-CLL cells from patients were stimulated with 1 μg/ml sCD40L (Alexis Corp., Bingham, Nottinghamshire, UK). CHIR12.12 (10 μg/ml) or control IgG was then added. […] After fixation and permeabilization, the cells were stained for cleaved PARP and TUNEL methods.

[6] = tested on: B-CLL cells; experiment: p38 MAPK signaling and survival in B-CLL cells, 24-hour experiment; format: cell-based, human
Method: In the 24-hour experiment, approximately 0.8×10^6 B-CLL cells per well were placed in full serum (10% FBS)-containing media for 24 hours. […] Western blot analysis with antibodies against specific proteins shown was conducted, and equal loading was evaluated by probing with antibodies against β-actin.

[7] = tested on: ARH-77 cells; experiment: ADCC, Calcein release with human NK cells, ARH-77; format: cell-based; details: NK:target 10 to 1, 4 hours, read-out: ED50 (percent specific lysis)
Method: Human MM cell lines, KMS-12-BM, IM-9, and ARH-77, were washed 3 times using R2 medium (Pheno red-free RPMI with 2% FBS) and re-suspended in R10 medium (Pheno red-free RPMI with 10% FBS) at the density of 1×10^6/mL. Cells were labeled by adding Calcein AM (final concentration […]) and incubating for 30 minutes at 37° C. in a humidified atmosphere with 5% CO2. Purified human NK cells and Calcein-labeled target cells were mixed in R10 medium at the ratio of 10 to 1 (5×10^4 NK cells and 5×10^3 target cells in […]) and added in U-bottom 96 well plate (Packard's Instrument, Meriden, Conn.). […] 1% NP-40 was added in 3 wells for the maximum cell lysis. Cells were incubated for 4 hours without disturbance at 37° C. in a humidified atmosphere with 5% CO2. The plate was then centrifuged at 300 rpm without brake for 5 minutes. […] supernatant was transferred into a new 96 well plate. The released Calcein in the supernatant was measured in arbitrary fluorescent unit (AFU) at 485 nm excitation and 535 nm emission using Tecan SpectraFluor Plus (Tecan U.S., Inc., Research Triangle, N.C.). The percent of specific lysis was calculated as: 100×(AFU test−AFU spontaneous release)/(AFU maximal release−AFU spontaneous release).
The ED50 was determined for each cell line by plotting the log of antibody concentration versus the percent specific lysis (see FIG. 16).

[8] = tested on: human lymphocytes from normal subjects; experiment: Proliferation of human lymphocytes; format: cell-based

cell-surface CD40, sequence (P25942 21-277): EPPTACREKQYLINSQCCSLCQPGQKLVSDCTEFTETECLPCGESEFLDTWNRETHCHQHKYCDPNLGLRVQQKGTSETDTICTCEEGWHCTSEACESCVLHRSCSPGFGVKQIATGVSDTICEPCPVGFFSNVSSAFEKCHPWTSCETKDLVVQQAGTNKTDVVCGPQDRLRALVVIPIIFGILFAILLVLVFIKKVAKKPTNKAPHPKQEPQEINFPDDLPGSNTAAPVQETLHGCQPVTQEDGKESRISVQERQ

**Q.** “CHIR-12.12: fully human anti-CD40 monoclonal antibody of the IgG1 isotype from hybridoma cell line 153.8E2.D10.D6.12.12 (ATCC PTA-5543)” was tested. Which “CD40L-mediated effects on cPARP, Mcl-1, Bcl-xl, p-Akt, p-p38” value [1] did it give?
**A.** The value was “blocked these CD40L-mediated effects on normal B cells”.

**Q.** And the “effect on proliferation of normal B cells” value [2]?
**A.** The value was “act as antagonist anti-CD40 antibodies; also recorded: inhibit in vitro CD40 ligand-mediated proliferation of normal B cells”.

**Q.** What about the “displacement of pre-bound CD40-ligand” value [3] of the same substance?
**A.** The value was “displace the pre-bound CD40-ligand; also recorded: can compete off CD40-ligand pre-bound to cell surface CD40”.

**Q.** What about the “prevention of CD40-ligand binding to cell-surface CD40” value [3] of the same substance?
**A.** Its value is “prevent the binding of CD40-ligand to cell-surface CD40; also recorded: can prevent CD40-ligand binding”.

**Q.** What about the p-p38 levels [4] of the same substance?
**A.** The p-p38 levels was “lowered p-p38 levels back to basal phosphorylation”.

**Q.** What about the “percentage of cells positive for cleaved PARP or TUNEL” value [5] of the same substance?
**A.** Its value is “the percentage of positive cells for cleaved PARP or TUNEL returned to the levels seen without sCD40L stimulation”.

**Q.** And the CD40 expression [6]?
**A.** The CD40 expression was “inhibited”.

**Q.** And the “cleaved Caspase-3” value ([6]; CD40L)?
**A.** The value was “induced to a lesser extent”.

**Q.** And the p38 phosphorylation ([6]; CD40L)?
**A.** The p38 phosphorylation was “similarly blocked”.

**Q.** What about the cleaved-PARP ([6]; SB203580 30 and 60 μM, CHIR-12.12 10 μg/mL, CD40L) of the same substance?
**A.** Its cleaved-PARP is “significantly induced”.

**Q.** What about the Bcl-xl expression ([6]; especially 60 μM SB203580 and 10 μg/ml CHIR-12.12) of the same substance?
**A.** The Bcl-xl expression was “blocked”.

**Q.** And the EC50 [7]?
**A.** The EC50 was 23.9 pM.

**Q.** And the CD40L-induced lymphocyte proliferation [8]?
**A.** The CD40L-induced lymphocyte proliferation was “inhibits CD40L-induced lymphocyte proliferation”.

**Q.** What about the “induction of lymphocyte proliferation (agonist activity)” value ([8]; antibody alone) of the same substance?
**A.** The value was “do not induce strong proliferation of human lymphocytes from normal subjects; also recorded: does not induce the proliferation of human peripheral blood lymphocytes”.
